Five compounds from PubChem BioAssay (NCI) can be followed below.

Molecules are shown by their SMILES.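 Cultured in 96-well plates, cells were exposed to test compound for 48 hours across five concentrations. Abbreviation: GI50, concentration required for 50% inhibition of growth. Definition used: TGI = concentration required for complete inhibition of growth.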

Test systems include SNB-19 CNS; RPMI-8226 leukemia; COLO 205 colon; OVCAR-4 ovarian; HCC-2998 colon; ACHN renal; SK-MEL-5 melanoma; MDA-MB-435; CCRF-CEM leukemia; TK-10 renal.
Test in all cases: DTP human tumour cell line panel, 48 h

As usually defined, the GI50 is the concentration giving 50% growth inhibition. One may read the TGI as the concentration giving total growth inhibition. Take `COc1ccc(-n2sc(=O)n(Cc3ccc(COC(=O)C(C)c4ccc(CC(C)C)cc4)cc3)c2=O)cc1` (stereo not given): the GI50 with SNB-19 CNS was 7.38 µM; in the test with RPMI-8226 leukemia, 1.51 µM; with COLO 205 colon it was 1.1 µM; in the test with OVCAR-4 ovarian, 0.92 µM; in the test on HCC-2998 colon, 7.99 µM; in the test on ACHN renal, 0.996 µM. Besides, the GI50 was 7.41 µM in the test with SK-MEL-5 melanoma, 1.32 µM in the test with MDA-MB-435, 0.567 µM in the test with CCRF-CEM leukemia and 0.997 µM in the test with TK-10 renal. In addition, the TGI in the test with SNB-19 CNS was 14.5 µM; with RPMI-8226 leukemia it was 4.11 µM; in the test on COLO 205 colon, 2.6 µM; with OVCAR-4 ovarian, 1.99 µM; with HCC-2998 colon it was 17.2 µM; with ACHN renal, 2.05 µM. Besides, the TGI in the test with SK-MEL-5 melanoma stood at 14.5 µM; in the test on MDA-MB-435, 3.93 µM; in the test on CCRF-CEM leukemia it was 3.74 µM; in the test on TK-10 renal, 2.17 µM.

Turning to `CCOC(=O)C(Cc1ccc(OC)cc1)C(=O)OCC`, the GI50 was 4.82 µM in the test with SNB-19 CNS; 3.05 µM in the test on RPMI-8226 leukemia; 7.23 µM in the test on COLO 205 colon; 6.23 µM with OVCAR-4 ovarian; 4.81 µM in the test with HCC-2998 colon; 7.33 µM in the test with ACHN renal. Besides, the GI50 is 3.65 µM in the test with SK-MEL-5 melanoma, 3.97 µM in the test with MDA-MB-435, 3.18 µM in the test with CCRF-CEM leukemia and 8.22 µM in the test with TK-10 renal. In addition, the TGI in the test with SNB-19 CNS turned out to be 17.4 µM; in the test on RPMI-8226 leukemia it was 14.3 µM; in the test on COLO 205 colon, 19.7 µM; in the test on OVCAR-4 ovarian, 26.5 µM; with HCC-2998 colon, 12.4 µM; in the test with ACHN renal, 22.3 µM. Moreover, the TGI in the test with SK-MEL-5 melanoma was found to be 15.3 µM; in the test with MDA-MB-435, 18 µM; with CCRF-CEM leukemia, 28.2 µM; in the test with TK-10 renal it was 26.2 µM.

In the case of `C=C1C(=O)OC2CC3(C)OC3C3OC3C3=CC(OC3=O)C12` (stereo not given), the GI50 was over 100 µM in the test on SNB-19 CNS; 7.34 µM in the test on RPMI-8226 leukemia; 0.539 µM in the test on COLO 205 colon; 2.14 µM with OVCAR-4 ovarian; 17.4 µM in the test with HCC-2998 colon; 1.81 µM in the test with ACHN renal. Besides, the GI50 in the test with SK-MEL-5 melanoma was 14.9 µM; in the test with MDA-MB-435, 9.57 µM; in the test with CCRF-CEM leukemia, 1.05 µM; in the test with TK-10 renal it was 1.91 µM. Also, the TGI was over 100 µM in the test with SNB-19 CNS; 33.2 µM in the test on RPMI-8226 leukemia; 1.25 µM with COLO 205 colon; 4.86 µM with OVCAR-4 ovarian; 33.9 µM in the test with HCC-2998 colon; 3.35 µM in the test with ACHN renal. For the same compound, the TGI in the test with SK-MEL-5 melanoma is 30.3 µM; in the test with MDA-MB-435, 29.3 µM; in the test with CCRF-CEM leukemia, 3.2 µM; with TK-10 renal it was 3.39 µM.

As to `O=C(NO)c1cnc(N2CCN(S(=O)(=O)c3ccc4ccccc4c3)CC2)nc1`, the GI50 is 0.238 µM with SNB-19 CNS; 0.0208 µM in the test on RPMI-8226 leukemia; 0.0564 µM in the test on COLO 205 colon; 0.081 µM in the test with OVCAR-4 ovarian; 0.11 µM with HCC-2998 colon; 0.0723 µM in the test with ACHN renal. The GI50 in the test with SK-MEL-5 melanoma is 0.0396 µM; in the test on MDA-MB-435 it was 0.0456 µM; with CCRF-CEM leukemia, 0.0379 µM; in the test on TK-10 renal it was 0.0432 µM. Besides, the TGI in the test on SNB-19 CNS turned out to be 11.8 µM; with RPMI-8226 leukemia it was 17.6 µM; in the test with COLO 205 colon, 0.294 µM; with OVCAR-4 ovarian, 23.6 µM; in the test on HCC-2998 colon it was 0.32 µM; with ACHN renal, 0.595 µM. The TGI was 0.15 µM in the test on SK-MEL-5 melanoma, 0.394 µM in the test on MDA-MB-435, over 64.7 µM with CCRF-CEM leukemia and 0.454 µM with TK-10 renal.

As for `CON`, the GI50 in the test on SNB-19 CNS, in the test on RPMI-8226 leukemia, with COLO 205 colon, with OVCAR-4 ovarian, in the test with HCC-2998 colon and with ACHN renal was over 100 µM each time. The GI50 in the test on SK-MEL-5 melanoma, with MDA-MB-435, with CCRF-CEM leukemia and with TK-10 renal was over 100 µM in each case. For the same compound, the TGI in the test with SNB-19 CNS, in the test with RPMI-8226 leukemia, in the test on COLO 205 colon, in the test on OVCAR-4 ovarian, in the test with HCC-2998 colon and with ACHN renal was over 100 µM throughout. Moreover, the TGI with SK-MEL-5 melanoma, in the test on MDA-MB-435, in the test on CCRF-CEM leukemia and with TK-10 renal was over 100 µM each time.
